Patent US9328093B2, “Selective inhibitors of ubiquitin specific protease 7, the pharmaceutical compositions thereof and their therapeutic applications” (HYBRIGENICS SA, priority 2010, dated 2016)

What was measured:
UCH-L3 = biological target: T1, UCH-L3 (Homo sapiens, UniProt P15374); assay: UCH-L3 activity assay (Ub-AMC substrate); format: biochemical; conditions: Ub-AMC 300 nM, UCH-L3 13 pM
T1 sequence (P15374 1-230): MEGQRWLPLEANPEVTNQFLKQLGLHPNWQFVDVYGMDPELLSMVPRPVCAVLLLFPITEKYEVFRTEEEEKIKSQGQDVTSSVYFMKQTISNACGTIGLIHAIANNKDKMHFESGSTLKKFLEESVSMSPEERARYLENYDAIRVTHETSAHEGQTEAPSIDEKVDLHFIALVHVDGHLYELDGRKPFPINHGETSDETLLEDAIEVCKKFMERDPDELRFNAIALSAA
Experimental: UCH-L3 was diluted in USP buffer (50 mM Tris HCl; 0.5 mM EDTA; 5 mM DTT; 0.01% Triton X-100; Bovine Serum Albumin 0.05 mg·ml^−1 pH7.6). Compounds stocks (100 mM) were stored at −20° C. in DMSO. Compounds were tested at different concentrations: from 200 μM to 91 nM.
Reactions were performed as duplicates in Black 384 well plates (small volume microplates; Greiner; 10 μl final reaction volume). The substrate concentration for UCH-L3 was 300 nM Ub-AMC (Boston Biochem). The concentration of the enzyme (UCH-L3) in specificity assays was 13 pM. The concentrations were determined in order to perform specificity assays under initial velocities at fixed substrate concentration. Compounds were pre-incubated with enzymes for 30 minutes at 25° C. Reactions were initiated by addition of substrate to the plates containing the enzymes (+/− compounds) diluted in assay buffer. Reactions were incubated for 60 minutes at 37° C. Reactions were stopped by adding acetic acid (100 mM final). Readings were performed on a Pherastar Fluorescent Reader (BMG). λ Emission 380 nm; λ Excitation=460 nm. Data (mean values +/− standard deviation) were analyzed as % of control (no compound) and plotted as percentage versus the Log of the compound concentration using GraphPad (Prism). Data were fitted to a sigmoidal model (variable slope).

USP7 = biological target: T2, USP7 (Homo sapiens, UniProt Q93009); assay: USP7 activity assay (Ub-AMC substrate); format: biochemical; conditions: Ub-AMC 300 nM, USP7 100 pM, 30 min pre-incubation
T2 construct: Full-length wild-type human USP7 and its catalytic mutant (cysteine 223 replaced by alanine, C223A) were produced as N-terminally His-tagged fusions; His (N); made in house; host or cells: Spodoptera frugiperda Sf9 (or High Five) insect cells, baculovirus pFastBac-HT-B
From the text: The cDNA encoding USP7 was obtained by PCR amplification from placenta mRNA. USP7 cDNA was subcloned by PCR into a baculovirus expression vector (pFastBac-HT; Invitrogen). Full-length wild-type human USP7 and its catalytic mutant (cysteine 223 replaced by alanine, C223A) were produced as N-terminally His-tagged fusions in Spodoptera frugiperda cells (Sf9, Invitrogen), using the Bac-to-Bac Baculovirus system from Invitrogen according to the manufacturer's instructions. pFastBac-HT-B-USP7 was used to transform DH10bac cells (Invitrogen), and blue/white selection was carried out on X-gal/IPTG agar plates. Bacmid DNA was prepared by an alkaline lysis procedure. The integrity of the bacmid minipreps and their orientation were checked by PCR, using generic and specific primers. Sf9 insect cells were cultured in InsectXpress medium (Cambrex) at 27° C. and transfected with the corresponding bacmid, using GeneShuttle 40 (Q-BIOgen). Viruses were recovered in the supernatant 72 h after transfection. Viruses were amplified by infecting insect cells (Sf9 or High Five cells; invitrogen) in 50 ml InsectXpress medium in a 150 cm^2 cell culture flask with 500 μl of the supernatant from transfected Sf9 cells. Following the second round of amplification, infected cells were recovered by rapid SDS lysis, boiled for 5 min at 100° C., sonicated briefly and centrifuged for 20 min at 14,000 g. Expression levels in infected Sf9 cells were compared with those in uninfected cells. Fusion proteins were then allowed to bind to TALON beads (BD Biosciences, TALON metal affinity resin) for 30 min at 4° C. with gentle rocking. Beads were extensively washed (50 mM sodium phosphate buffer pH 7.0, 500 mM NaCl, 10 mM Imidazole, 0.5% Triton X-100 and 10% glycerol) and bound proteins were eluted in wash buffer supplemented with 250 mM Imidazole (Sigma). Eluted fractions were resolved on 4-12% NuPAGE gels (Novex, Invitrogen). Fractions containing high concentrations of purified proteins (purity >95%) were dialyzed (20 mM Tris HCl pH 7.6, 200 mM NaCl, 1 mM DTT, 1 mM EDTA and 10% glycerol) were aliquoted and snap frozen in liquid nitrogen before storage at −80° C.
USP7 was diluted in USP buffer (50 mM Tris HCl; 0.5 mM EDTA; 5 mM DTT; 0.01% Triton X-100; Bovine Serum Albumin 0.05 mg·ml^−1 pH7.6). Compounds stocks (10 mM) were stored at −20° C. in DMSO. Compounds were tested at different concentrations: from 200 μM to 91 nM.
Reactions were performed as duplicates in Black 384 well plates (small volumes microplates; Greiner; 10 μl final reaction volume). The substrate concentration for USP7 was 300 nM Ub-AMC (Chem. Biol., 2003, 10, p. 837-846) (Boston Biochem). The concentrations of the enzyme (USP7) in specificity assays was 100 pM. The concentrations were determined in order to perform specificity assays under initial velocities at fixed substrate concentration. Compounds were pre-incubated with enzymes for 30 minutes at 25° C. Reactions were initiated by addition of substrate to the plates containing the enzymes (+/− compounds) diluted in assay buffer. Reactions were incubated for 60 minutes at 37° C. Reactions were stopped by adding acetic acid (100 mM final). Readings were performed on a Pherastar Fluorescent Reader (BMG). λ
Emission 380 nm; λ Excitation=460 nm. Data (mean values +/− standard deviation) were analyzed as % of control (no compound) and plotted as percentage versus the Log of the compound concentration using GraphPad (Prism). Data were fitted to a sigmoidal model (variable slope).

Row | Structure (SMILES) | IC50 (UCH-L3) [µM] | IC50 (USP7) [µM]
1 | O=C(NCc1cccc(CN2CCCC2)c1)c1ccc2c(Cl)c3c(nc2c1)CCCC3 [Example 18, 9-chloro-N-(3-(pyrrolidin-1-ylmethyl)benzyl)-5,6,7,8-tetrahydroacridine-3-carboxamide] | > 200 | 18.3
2 | COc1ccc(CN2CCC(CNC(=O)c3ccc4c(Cl)c5c(nc4c3)CCCC5)CC2)cc1 [Example 22, 9-chloro-N-((1-(4-methoxybenzyl)piperidin-4-yl)methyl)-5,6,7,8-tetrahydroacridine-3-carboxamide] | > 200 | 27.4
3 | CN1CCCC1CCNC(=O)c1ccc2c(Cl)c3c(nc2c1)CCCC3 (stereo not drawn) [Example 17, 9-chloro-N-(2-(1-methylpyrrolidin-2-yl)ethyl)-5,6,7,8-tetrahydroacridino-3-carboxamide] | > 200 | 13.7
4 | CC1CCCCN1CCCNC(=O)c1ccc2c(Cl)c3c(nc2c1)CCCC3 (stereo not drawn) [Example 20, 9-chloro-N-(3-(2-methylpiperidin-1-yl)propyl)-516,7,8-tetrahydroacridine-3-carboxamide] | > 200 | 45.5
5 | O=C(NCc1ccc(CN2CCCC2)cc1)c1ccc2c(Cl)c3c(nc2c1)CCCC3 [Example 21, 9-chloro-N-(4-(pyrrolidin-1-ylmethyl)benzyl)-5,6,7,8-tetrahydroacridine-3-carboxamide] | > 200 | 16.3
6 | O=C(Nc1cccc(CN2CCCC2)c1)c1ccc2c(Cl)c3c(nc2c1)CCCC3 [Example 19, 9-chloro-N-(3-(pyrrolidin-1-ylmethyl)phenyl)-5.6,7,8-tetrahydroacridine-3-carboxamide] | > 200 | 8.2

Results, then the molecule that gave them:

Row | IC50 (UCH-L3) [µM] | IC50 (USP7) [µM] | Structure (SMILES)
7 | > 200 | 59.5 | O=C(NCC(CN1CCCC1)C(O)c1ccccc1)c1ccc2c(Cl)c3c(nc2c1)CCCC3 (stereo not drawn) [Example 25, 9-chloro-N-(3-hydroxy-3-phenyl-2-pyrrolidin-1-ylmethylpropyl)-5,6,7,8-tetrahydroacridine-3-carboxamide]
8 | > 200 | 45.2 | O=C(NCC1CCNCC1)c1ccc2c(Cl)c3c(nc2c1)CCCC3 [Example 24, 9-chloro-N-((piperidin-4-yl)methyl)-5,6,7,8-tetrahydroacridine-3-carboxamide]
9 | > 200 | 33.1 | CN(C)c1ccc(CN2CCC(CNC(=O)c3ccc4c(Cl)c5c(nc4c3)CCCC5)CC2)cc1 [Example 23]
